“Also recorded” adds a separate entry of the source.
Legend:
[1] = biological target: KRAS Q61H GTP + RAF1 + CYPA (Homo sapiens, UniProt P01116+P62937, Q61H); assay: Ras: RAF1 HTRF Assay (RAS-GTP & Raf disruption); type: biochemical; conditions: 1 h incubation, room temperature
[2] = test system: HepG2 (NRAS Q61L) cells; assay: Cell Viability Assay (MTS); type: cell-based; conditions: 5 days, FIG. 2
Text: (§1) Selective screening using RAS-driven and RAS-non-driven cells: (1) RAS-driven cells, including cells with persistent RAS activation due to RAS mutations and upstream EGFR activation. Cells that are continuously activated due to RAS mutations, such as KRAS G12D (AsPC-1, HPAC, etc.) mutant cells, KRAS G12C (NCI-H358, MIAPaCa-2, etc.) KRAS G13D (LOVO, HCT15, etc.) mutant cells, etc. Cells with continuous activation of RAS due to EGFR mutations, such as EGFREx19del (PC-9, etc.) mutant cells, EGFRT790M/L858R (NCI-H1975, etc.) mutant cells, etc.; (2) Non-RAS driven cells, including BRAFV600E (A375, SK)-MEL-3, etc.) mutant cells, RASWT (BxPC-3, etc.) cells, etc.
(§2) Specific experimental methods: The above cells were seeded in a 96-well plate at a density of 1000-10000 per well. Drugs were diluted in DMSO to make a 10 mM stock solution. Subsequently, the drug was diluted in a 3-fold gradient to a final concentration of 1000 nM. The cells were treated with the drug for 5 days. Cell viability was then detected by the MTS method.

[3] = test system: NCI-H1975 (EGFR T790M/L858R) cells; assay: Cell Viability Assay (MTS); type: cell-based; conditions: 5 days, FIG. 2
Text: as §1, §2

[4] = test system: A375 (BRAF V600E) cells; assay: Cell Viability Assay (MTS); type: cell-based; conditions: RAS-independent, 5 days, FIG. 2
Text: as §1, §2

[5] = test system: LOVO (KRAS G13D) cells; assay: Cell Viability Assay (MTS); type: cell-based; conditions: 5 days, FIG. 2
Text: as §1, §2

[6] = test system: SW620 (KRAS G12V) cells; assay: Cell Viability Assay (MTS); type: cell-based; conditions: 5 days, FIG. 2
Text: as §1, §2

[7] = test system: AGS (KRAS G12D) cells; assay: Cell Viability Assay (MTS); type: cell-based; conditions: 5 days, FIG. 2
Text: as §1, §2

[8] = biological target: KRAS G12S GTP + RAF1 + CYPA (Homo sapiens, UniProt P01116+P62937, G12S); assay: Ras: RAF1 HTRF Assay (RAS-GTP & Raf disruption); type: biochemical; conditions: 1 h incubation, room temperature
KRAS G12S GTP + RAF1 + CYPA, sequence (P01116 1-188 isoform P01116-2 G12S): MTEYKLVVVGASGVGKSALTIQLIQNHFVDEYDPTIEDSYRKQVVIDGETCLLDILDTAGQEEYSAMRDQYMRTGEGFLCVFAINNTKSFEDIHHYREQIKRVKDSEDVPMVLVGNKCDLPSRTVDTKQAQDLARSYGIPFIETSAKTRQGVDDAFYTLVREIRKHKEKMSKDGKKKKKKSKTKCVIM
KRAS G12S GTP + RAF1 + CYPA, sequence (P62937 whole entry): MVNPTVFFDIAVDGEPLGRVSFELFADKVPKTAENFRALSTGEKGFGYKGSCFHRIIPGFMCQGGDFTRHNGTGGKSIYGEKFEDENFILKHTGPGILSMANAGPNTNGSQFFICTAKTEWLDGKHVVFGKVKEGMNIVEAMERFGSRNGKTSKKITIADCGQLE
Protocol: (§3) This example is to verify the binding between RAS protein and its interacting protein (SOS1 or RAF1). When RAS exists with SOS1 or RAF, the two interact to make the energy donor and receptor bound to it close enough, and then when the donor is excited by an external light source, energy resonance transfer occurs, thereby exciting the receptor and emitting a specific wavelength of emitted light, the FRET signal is detected.
Specific experimental methods: 20 nM purified RAS protein (e.g. KRAS-G12D, G12V, G12C, WT; NRAS-WT) was incubated with the drug to be screened (the drug was diluted in a 3-fold gradient to a final concentration of 1000 nM) at room temperature for 1 h. […] After adding the detection antibody (PerkinElmer, Cisbio, HTRF antibody), the value was measured according to the manufacturer's instructions.

[9] = biological target: KRAS G12V GTP + RAF1 + CYPA (Homo sapiens, UniProt P01116+P62937, G12V); assay: Ras: RAF1 HTRF Assay (RAS-GTP & Raf disruption); type: biochemical; conditions: 1 h incubation, room temperature
KRAS G12V GTP + RAF1 + CYPA, sequence (P01116 1-188 isoform P01116-2 G12V): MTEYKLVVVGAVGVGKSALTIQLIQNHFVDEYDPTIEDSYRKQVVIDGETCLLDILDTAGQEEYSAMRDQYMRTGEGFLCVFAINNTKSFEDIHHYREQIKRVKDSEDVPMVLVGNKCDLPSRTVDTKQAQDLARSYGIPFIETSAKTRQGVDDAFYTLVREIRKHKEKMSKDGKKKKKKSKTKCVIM
KRAS G12V GTP + RAF1 + CYPA, sequence (P62937 whole entry): as the sequence (P62937 whole entry) above
Protocol: as §3
(§4) Specific experimental methods: 20 nM purified RAS protein (e.g. KRAS-G12D, G12V, G12C, WT; NRAS-WT) was incubated with the drug to be screened (the drug was diluted in a 3-fold gradient to a final concentration of 1000 nM) at room temperature for 1 h. Subsequently, 30 nM purified SOS1-Cat was added and incubated at room temperature for 0.5-1 h. After adding the detection antibody (PerkinElmer, Cisbio, HTRF antibody), the value was measured according to the manufacturer's instructions.

[10] = biological target: KRAS G12C GTP + RAF1 + CYPA (Homo sapiens, UniProt P01116+P62937, G12C); assay: Ras: RAF1 HTRF Assay (RAS-GTP & Raf disruption); type: biochemical; conditions: 1 h incubation, room temperature
KRAS G12C GTP + RAF1 + CYPA, sequence (P01116 1-188 isoform P01116-2 G12C): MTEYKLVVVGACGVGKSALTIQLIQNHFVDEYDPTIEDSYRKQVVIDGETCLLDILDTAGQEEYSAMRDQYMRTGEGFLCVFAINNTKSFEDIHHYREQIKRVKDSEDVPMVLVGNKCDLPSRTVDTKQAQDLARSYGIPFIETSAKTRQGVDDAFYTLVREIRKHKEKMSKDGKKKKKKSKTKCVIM
KRAS G12C GTP + RAF1 + CYPA, sequence (P62937 whole entry): as the sequence (P62937 whole entry) above
Protocol: as §3, §4

[11] = biological target: KRAS G12D GTP + RAF1 + CYPA (Homo sapiens, UniProt P01116+P62937, G12D); assay: Ras: RAF1 HTRF Assay (RAS-GTP & Raf disruption); type: biochemical; conditions: 1 h incubation, room temperature
KRAS G12D GTP + RAF1 + CYPA, sequence (P01116 1-188 isoform P01116-2 G12D): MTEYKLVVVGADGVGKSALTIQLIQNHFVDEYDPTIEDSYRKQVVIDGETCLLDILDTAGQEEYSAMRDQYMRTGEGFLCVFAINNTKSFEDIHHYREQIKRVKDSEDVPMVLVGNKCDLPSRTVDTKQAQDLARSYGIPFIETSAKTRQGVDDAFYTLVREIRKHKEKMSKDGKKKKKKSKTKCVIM
KRAS G12D GTP + RAF1 + CYPA, sequence (P62937 whole entry): as the sequence (P62937 whole entry) above
Protocol: as §3, §4

[12] = biological target: HRAS WT GTP + RAF1 + CYPA (Homo sapiens, UniProt P01112+P62937); assay: Ras: RAF1 HTRF Assay (RAS-GTP & Raf disruption); type: biochemical; conditions: 1 h incubation, room temperature
HRAS WT GTP + RAF1 + CYPA, sequence (P01112 whole entry): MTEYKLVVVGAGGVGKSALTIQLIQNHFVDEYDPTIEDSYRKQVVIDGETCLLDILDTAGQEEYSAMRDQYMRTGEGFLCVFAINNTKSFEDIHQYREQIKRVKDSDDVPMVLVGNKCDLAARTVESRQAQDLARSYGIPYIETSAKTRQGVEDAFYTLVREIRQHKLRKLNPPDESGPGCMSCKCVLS
HRAS WT GTP + RAF1 + CYPA, sequence (P62937 whole entry): as the sequence (P62937 whole entry) above
Protocol: as §3, §4

[13] = biological target: KRAS G12R GTP + RAF1 + CYPA (Homo sapiens, UniProt P01116+P62937, G12R); assay: Ras: RAF1 HTRF Assay (RAS-GTP & Raf disruption); type: biochemical; conditions: 1 h incubation, room temperature
KRAS G12R GTP + RAF1 + CYPA, sequence (P01116 1-188 isoform P01116-2 G12R): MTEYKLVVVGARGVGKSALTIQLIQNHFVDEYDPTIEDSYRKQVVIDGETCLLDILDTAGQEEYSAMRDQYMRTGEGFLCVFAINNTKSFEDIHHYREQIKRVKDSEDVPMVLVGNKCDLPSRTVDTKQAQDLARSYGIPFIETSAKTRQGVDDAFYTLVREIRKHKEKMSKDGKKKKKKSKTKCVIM
KRAS G12R GTP + RAF1 + CYPA, sequence (P62937 whole entry): as the sequence (P62937 whole entry) above
Protocol: as §3, §4

[14] = test system: RAF1 with active KRAS mutant protein or HRAS WT protein; assay: Ras: RAF1 HTRF Assay, overall statement; type: biochemical; conditions: in words; FIG. 1
[15] = test system: RAS dependent cells; assay: Cell Viability Assay (MTS), overall statement; type: cell-based; conditions: FIG. 2
Text: as §1, §2

KRAS Q61H GTP + RAF1 + CYPA, sequence (P01116 1-188 isoform P01116-2 Q61H): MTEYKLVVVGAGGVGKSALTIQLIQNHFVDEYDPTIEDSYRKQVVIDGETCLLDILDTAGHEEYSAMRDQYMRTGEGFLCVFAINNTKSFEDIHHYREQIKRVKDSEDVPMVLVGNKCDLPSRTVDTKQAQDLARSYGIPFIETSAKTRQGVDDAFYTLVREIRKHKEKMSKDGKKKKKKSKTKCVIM
KRAS Q61H GTP + RAF1 + CYPA, sequence (P62937 whole entry): as the sequence (P62937 whole entry) above

- IC50 [1]: 31.24 ± 0.3 nM
- IC50 [8]: 19.6 ± 1.03 nM
- IC50 [9]: 165 ± 7.92 nM
- IC50 [10]: 15.8 ± 3.97 nM
- IC50 [11]: 55.9 ± 8.92 nM
- IC50 [12]: 467.8 ± 4.6 nM
- IC50 [13]: 729 ± 106 nM
SMILES: CCn1c(-c2cc(P(C)(C)=O)ccc2[C@H](C)OC)c2c3cc(ccc31)-c1cc(O)cc(c1)C[C@H](NC(=O)[C@H](C(C)C)N(C)C(=O)[C@@H]1OCC[C@@H]1c1ccccc1)C(=O)N1CCC[C@H](N1)C(=O)OCC(C)(C)C2 [Example 2, (2R,3R)—N-((2S)-1-(((6^3S,4S)-1^2-(5-(dimethylphosphoryl)-2-((S)-1-methoxyethyl)phenyl)-1^1-ethyl-2^5-hydroxy-10,10-dimethyl-5,7-dioxo-6^1,6^2,6^3,6^4,6^5,6^6-hexahydro-1^1H-8-oxa-1(5,3)-indola-6(1,3)-pyridazina-2(1,3)-benzenacycloundecaphane-4-yl)amino)-3-methyl-1-oxobutan-2-yl)-N-methyl-3-phenyltetrahydrofuran-2-carboxamide]
- inhibition of cell viability [2]: significantly inhibited
- inhibition of cell viability [3]: significantly inhibited
- inhibition of cell viability [4]: relative insensitive
- inhibition of cell viability [5]: significantly inhibited
- inhibition of cell viability [6]: significantly inhibited
- inhibition of cell viability [7]: significantly inhibited
- inhibition of the interaction of RAF1 with active KRAS mutant protein or HRAS WT protein [14]: potently inhibited; also recorded: significantly inhibited
- inhibition of cell viability [15]: potently inhibited

Source: US20260317347A1, “MACROCYCLIC COMPOUNDS AND THERAPEUTIC USES THEREOF” (SUNRISE ONCOLOGY (HONG KONG) LIMITED, priority 2023, published 2026)
